{"source": "patent US20130130376A1", "about": "“SCREENING METHODS, COMPOSITIONS IDENTIFIED THEREBY, TOOLS USEFUL FOR THE IDENTIFICATION THEREOF, AND CELL POPULATIONS PRODUCED THEREBY” (priority 2010, published 2013)", "system": "Jurkat cells", "test": "ECMP attachment screen for Jurkat cell attachment on hydrogel array spots", "format": "cell-based, human", "details": "printed alone in a 400 μm spot on hydrogel coated slide; nuclear fluorescence (DraQ) after 3 hours of attachment", "procedure": "In certain embodiments, stock solutions of extracellular matrix (ECM) components (0.01 mg/ml-1 mg/ml), such as Collagen I, III, IV, V, VI, Fibronectin, Laminin, and the like, as well as Hyaluronic Acid, gelatin and BSA (negative control) are mixed 1:1 with 200 mM acetate, 10 mM EDTA, 40% (v/v) glycerol, and 0.5% (v/v) Triton X-100 in MQH2O, at pH 4.9. Individual and combinations of different components are mixed in 384-well plates. This ECM based array is used to screen for the optimal cell attachment conditions.\nThe human acute T cell leukemia Jurkat cell line (ATTC Number TIB-153) was purchased from American Type Culture Collection (ATCC). Cells were cultured in RPMI-1640, supplemented with 10% FBS, 2 mmol/liter glutamin and antibiotics (100 IU/ml of penicillin G) and incubated at 37° C. in a humidified atmosphere of 5% CO2. […]\nFIG. 3, for example, summarizes the attachment components that were identified to support Jurkat cell attachment on invention arrays. Briefly, Jurkat nuclear intensity was monitored by fluorescence using DraQ staining after 3 hours of attachment. The slides were read using a […] and fluorescence was quantified using the Genepix 2.0 software. […]", "data": [{"substance": "Fibronectin", "values": [{"measurement": "Jurkat cell attachment", "result": "consistently supported attachment of Jurkat cells"}]}]}
